Tested on: Neutrophil elastase activity in U937 cells
Assay: Determination of neutrophil elastase activity in U937 cytosolic lysate preparation after incubation with test compound
Type: cell-based
Settings: Homo sapiens, U-937, read-out: Reduction of NE-activity in U937 cells IC50
Description: Determination of Neutrophil Elastase Activity in U937 Cytosolic Lysate Preparation after Incubation with Test Compound
Optiplate 384F were purchased from PerkinElmer (Prod. No. #6007270). 24 well Nunclon cell culture plates (No. 142475) and 96 well plates (No. 267245) were from Nunc. Dimethylsulfoxid (DMSO) was from Sigma (Prod. No. D8418). Nonidet-P40 (NP40) was from USBiological (Prod. No. N3500)
Substrate, specific for Neutrophil elastase, was from Bachem (MeOSuc-Ala-Ala-Pro-Val-AMC; Prod. No. 1-1270).
Human neutrophil elastase was from Calbiochem (Prod. No. 324681)
Tris-buffer (100 mM Tris; 1M NaCL; pH 7.5)
Tris-buffer+HSA 0.1%; Human Serum Albumin from Calbiochem (Cat#. 126658)
Serine-protease buffer (20 mM Tris; 100 mM NaCL; pH 7.5)+0.1% HSA
Serine protease lysis buffer: 20 mM Tris-HCL; 100 mM NaCl pH 7.5; +0.2% Nonidet-P40;
PBS: phosphate buffered saline, without Ca and Mg, from Gibco
U937 from ECACC (Cat. No. 85011440) cultured in suspension at 37° C. and 5% CO2.
Cell density: 0.2-1 Mio. Cells/ml.
Medium: RPMI1640 GlutaMAX (No. 61870) with 10% FCS from Gibco
Cell Seeding and Treatment:
Compounds in 100% DMSO were diluted in Medium (—FCS) with 10% DMSO and further diluted according to the experiment planned.
20 μl of the compound solution was transferred in the respective wells of the 24 well plate and diluted with 2 ml cell suspension/well containing […] (final concentration of DMSO=0.1%). Compound dilution factor=100
Compounds (up to 7 concentrations) were tested in triplicates with 3 wells for the DMSO 0.1% control, incubated for 48 hours without medium change at 37° C., 5% CO2 and 95% relative humidity.
Cell Harvesting and Cell Lysate:
Transfer the cell suspension in 2.2 ml Eppendorf cups. Separate cells from medium by centrifugation (400×g; 5 min; RT); discard the supernatant. Resuspend in 1 ml PBS; centrifugation (400×g; 5 min; RT); wash cells twice with PBS. Add 100 μl Serin lysis buffer (ice cold) to the cell pellet; resuspend the pellet and store on ice for 15 minutes. Remove debris by centrifugation at 15000×g for 10 min at 4° C. Transfer 80-100 μl lysate supernatant in 96 well plate and store immediately at −80° C.
Neutrophil Elastase Activity Assay:
Frozen lysates were thawn at 37° C. for 10 minutes and stored on ice. Protein content was determined with Bradford protein assay. Lysates were diluted to 0.2-0.5 mg/ml protein in serine protease buffer+HSA.
Standard: NE (100 μg/ml stock solution in Tris-buffer; stored at −80° C.) was diluted in Tris-buffer+HSA to 750 ng/ml, and further serially diluted 1:2 for the standard curve.
Buffer, blank, standard and lysate samples were transferred into 384 well plate
Blank: 5 μl Tris-buffer+10 μl Tris-buffer+HSA+5 μl Substrate
Standard: 5 μl Tris-buffer+10 μl NE (diff. conc.)+5 μl Substrate
Lysate: 5 μl Tris-buffer+10 μl Lysat+[…] Substrate
The increase in fluorescence (Ex360 nm/Em 460 nm) is determined over 30 minutes with a Molecular Device Spectramax M5 Fluorescence Reader. Kinetic Reduction (Vmax units/sec); 4 vmax points. The amount of neutrophil elastase (ng/ml) is calculated using the standard curve and the Spectramax software. The result is interpolated to ng/mg lysate protein using excel formula functions. […] IC50 is calculated using Graphpad Prism; nonlinear fitting (log(inhibitor) vs. response—Variable slope).

IC50 [nM]	SMILES
2.4	CCN1CCN(c2ccc(C[C@@H](C#N)NC(=O)[C@H]3N[C@@H]4CC[C@H]3C4)c(F)c2)CC1 [Example 272]
11.5	N#C[C@H](Cc1ccc(N2CCN3CCOC[C@H]3C2)cc1F)NC(=O)[C@H]1N[C@@H]2CC[C@H]1C2 [Example 250]
4.5	N#C[C@H](Cc1ccc([C@@H]2CCN3CCOC[C@H]3C2)cc1F)NC(=O)[C@H]1N[C@@H]2CC[C@H]1C2 [Example 283]
2.3	CC1(C)OC(=O)c2ccc(-c3ccc(C[C@@H](C#N)NC(=O)[C@H]4N[C@@H]5CC[C@H]4C5)c(F)c3)cc21 [Example 156]
7.8	N#CC(Cc1cc2c(=O)[nH]c3ccccc3c2cc1F)NC(=O)[C@H]1N[C@@H]2CC[C@H]1C2 (stereo partly shown) [Example 294]
16.9	N#C[C@H](Cc1ccc(-c2ccc(=O)n(CC(F)F)c2)cc1F)NC(=O)[C@H]1N[C@@H]2CC[C@H]1C2 [Example 343]
8.8	COCCN1C(=O)Cc2ccc(-c3ccc(C[C@@H](C#N)NC(=O)[C@H]4N[C@@H]5CC[C@H]4C5)c(F)c3)cc21 [Example 158]
3.6	CN(C)CCCN1C(=O)Cc2ccc(-c3ccc(C[C@@H](C#N)NC(=O)[C@H]4N[C@@H]5CC[C@H]4C5)c(F)c3)cc21 [Example 277]
8.1	COCCN1CCN(c2ccc(C[C@@H](C#N)NC(=O)[C@H]3N[C@@H]4CC[C@H]3C4)c(F)c2)CC1 [Example 182]
7.5	N#C[C@H](Cc1ccc(-c2ccc(S(=O)(=O)N3CCOCC3)cc2)cc1F)NC(=O)[C@H]1N[C@@H]2CC[C@H]1C2 [Example 217]
9.3	CN1CCC(Oc2ccc(C[C@@H](C#N)NC(=O)[C@H]3N[C@@H]4CC[C@H]3C4)c(F)c2)CC1 [Example 319, (1S,2S,4R)—N-[(1S)-1-cyano-2-[2-fluoro-4-[(1-methyl-4-piperidyl)oxy]phenyl]ethyl]-3-azabicyclo[2.2.1]heptane-2-carboxamide]
7.3	N#C[C@H](Cc1ccc(N2CCN(C3CC3)CC2)cc1F)NC(=O)[C@H]1N[C@@H]2CC[C@H]1C2 [Example 187]
5.2	N#C[C@H](Cc1ccc(-c2csc(C(=O)N3CCN(CC(F)(F)F)CC3)c2)cc1F)NC(=O)[C@H]1N[C@@H]2CC[C@H]1C2 [Example 232]
1.9	Cn1c(=O)c2cc(C[C@@H](C#N)NC(=O)[C@H]3N[C@@H]4CC[C@H]3C4)c(F)cc2c2ccccc21 [Example 326]
1.4	N#C[C@H](Cc1cc2c(=O)[nH]c3cc(F)ccc3c2cc1F)NC(=O)[C@H]1N[C@@H]2CC[C@H]1C2 [Example 323]
3.6	COCCN1CCN(c2ccc(C[C@@H](C#N)NC(=O)[C@H]3N[C@@H]4CC[C@H]3C4)c(F)c2)CC1C (stereo partly shown) [Example 178]
5.3	CN1CCN(C(=O)c2coc(-c3ccc(C[C@@H](C#N)NC(=O)[C@H]4N[C@@H]5CC[C@H]4C5)c(F)c3)c2)CC1 [Example 241]
1	CN1CCN(S(=O)(=O)c2cccc(-c3ccc(C[C@@H](C#N)NC(=O)[C@H]4N[C@@H]5CC[C@H]4C5)c(F)c3)c2)CC1 [Example 224]
1.9	N#C[C@H](Cc1ccc(C2=CCN3CCOCC3C2)cc1F)NC(=O)[C@H]1N[C@@H]2CC[C@H]1C2 (stereo partly shown) [Example 281]
4.7	N#Cc1cc(F)c2[nH]c(=O)c3cc(C[C@@H](C#N)NC(=O)[C@H]4N[C@@H]5CC[C@H]4C5)c(F)cc3c2c1 [Example 325]

SMILES	IC50 [nM]
N#C[C@H](Cc1ccc(C2=CCN(C3CCOC3)CC2)cc1F)NC(=O)[C@H]1N[C@@H]2CC[C@H]1C2 (stereo partly shown) [Example 332]	5.8
CCN1CC=C(c2ccc(C[C@@H](C#N)NC(=O)[C@H]3N[C@@H]4CC[C@H]3C4)c(F)c2)CC1 [Example 320]	3.7
CN(C)CCN1C(=O)Cc2ccc(-c3ccc(C[C@@H](C#N)NC(=O)[C@H]4N[C@@H]5CC[C@H]4C5)c(F)c3)cc21 [Example 278]	1
CN1C2CCC1CN(c1ccc(C[C@@H](C#N)NC(=O)[C@H]3N[C@@H]4CC[C@H]3C4)c(F)c1)C2 [Example 333]	4.7
CN(C)CCN1C(=O)Cc2cc(-c3ccc(C[C@@H](C#N)NC(=O)[C@H]4N[C@@H]5CC[C@H]4C5)c(F)c3)ccc21 [Example 279]	1.9

Reference: patent US10238633B2, “Methods for treating pulmonary emphysema using substituted 2-Aza-bicyclo[2.2.1]heptane-3-carboxylic acid (benzyl-cyano-methyl)-amides inhibitors of Cathepsin C” (Boehringer Ingelheim International GmbH, priority 2013, dated 2019)
